Assay results reported in ChEMBL document CHEMBL1201862, “PubChem BioAssay data set” (2004).
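The compound was tested at five concentrations on cells cultured in 96-well plates, with a 48-hour exposure period. GI50 marks 50% less growth.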 The source made the active and inactive calls. Rule as the data show it: active = GI50 up to about 1.1 µM and inactive = higher.

Columns and labels:
Assay in all cases: NCI-60 cell line screen, 48 h
[1] = test system: SF-295
[2] = test system: HL-60
[3] = test system: CAKI-1
[4] = test system: RXF 393
[5] = test system: NCI-H522
[6] = test system: MDA-N
[7] = test system: SN12C
[8] = test system: HCT-116
[9] = test system: MOLT-4
[10] = test system: SF-539
[11] = test system: A549
[12] = test system: UACC-257
[13] = test system: MDA-MB-435
[14] = test system: NCI-H460
[15] = test system: SK-MEL-28
[16] = test system: T47D
[17] = test system: Hs-578T
[18] = test system: M14
[19] = test system: SNB-19
[20] = test system: SK-MEL-2

SMILES | GI50 [1] | GI50 [2] | GI50 [3] | GI50 [4] | GI50 [5] | GI50 [6] | GI50 [7] | GI50 [8] | GI50 [9] | GI50 [10] | GI50 [11] | GI50 [12] | GI50 [13] | GI50 [14] | GI50 [15] | GI50 [16] | GI50 [17] | GI50 [18] | GI50 [19] | GI50 [20]
COc1ccc(C2=Nn3c(nc4sc5c(c4c3=O)CCCC5)SC2)cc1 | > 100 µM (inactive) | > 100 µM (inactive) | > 100 µM (inactive) | > 100 µM (inactive) | > 100 µM (inactive) | > 100 µM (inactive) | > 100 µM (inactive) | > 100 µM (inactive) | > 100 µM (inactive) | > 100 µM (inactive) | > 100 µM (inactive) | > 100 µM (inactive) | > 100 µM (inactive) | > 100 µM (inactive) | > 100 µM (inactive) | > 100 µM (inactive) | 70.6 µM (inactive) | – | – | –
CCOC(=O)c1cnc2[nH]ccn2c1=O | > 10 µM (inactive) | > 10 µM (inactive) | > 10 µM (inactive) | > 10 µM (inactive) | – | > 10 µM (inactive) | > 10 µM (inactive) | > 10 µM (inactive) | > 10 µM (inactive) | > 10 µM (inactive) | > 10 µM (inactive) | > 10 µM (inactive) | > 10 µM (inactive) | > 10 µM (inactive) | > 10 µM (inactive) | > 10 µM (inactive) | > 10 µM (inactive) | > 10 µM (inactive) | > 10 µM (inactive) | > 10 µM (inactive)
COc1ccc(OC)c(C[P+](c2ccccc2)(c2ccccc2)c2ccccc2)c1 | 3.96 µM (inactive) | 0.434 µM (active) | 23.4 µM (inactive) | 4.68 µM (inactive) | 9.23 µM (inactive) | 0.753 µM (active) | 5.89 µM (inactive) | 1.02 µM (active) | 3.42 µM (inactive) | 3.82 µM (inactive) | 3.56 µM (inactive) | 0.656 µM (active) | 0.984 µM (active) | 3.84 µM (inactive) | 3.26 µM (inactive) | 2.87 µM (inactive) | 2.01 µM (inactive) | 2.42 µM (inactive) | 2.67 µM (inactive) | –
Cn1c2ccccc2c2c(=O)[nH]c(=O)[nH]c21 | > 100 µM (inactive) | > 100 µM (inactive) | > 100 µM (inactive) | > 100 µM (inactive) | > 100 µM (inactive) | > 100 µM (inactive) | > 100 µM (inactive) | > 100 µM (inactive) | > 100 µM (inactive) | > 100 µM (inactive) | > 100 µM (inactive) | > 100 µM (inactive) | > 100 µM (inactive) | – | > 100 µM (inactive) | > 100 µM (inactive) | > 100 µM (inactive) | > 100 µM (inactive) | > 100 µM (inactive) | > 100 µM (inactive)
O=c1ccc2[n+]([O-])c3ccc(O)cc3oc-2c1 [RESAZURIN] | 7.41 µM (inactive) | 23.1 µM (inactive) | 32.5 µM (inactive) | 37 µM (inactive) | 12.1 µM (inactive) | 1.84 µM (inactive) | 18.2 µM (inactive) | 16.7 µM (inactive) | 13.7 µM (inactive) | 15.9 µM (inactive) | 4.31 µM (inactive) | 11.2 µM (inactive) | 1.89 µM (inactive) | 12.3 µM (inactive) | 10.2 µM (inactive) | 56.4 µM (inactive) | 7.53 µM (inactive) | 7.83 µM (inactive) | – | 10 µM (inactive)
CCCCc1ccc(Nc2nc(OC)c3ncn(C4CC(O)C(CO)O4)c3n2)cc1 (stereo unspecified) | 18.5 µM (inactive) | 2.05 µM (inactive) | 1.85 µM (inactive) | 14.8 µM (inactive) | 1.86 µM (inactive) | 15.5 µM (inactive) | 13.3 µM (inactive) | 15.8 µM (inactive) | 16.9 µM (inactive) | 13.7 µM (inactive) | 16.8 µM (inactive) | 17.7 µM (inactive) | 17.7 µM (inactive) | 16.4 µM (inactive) | – | 18.9 µM (inactive) | 18.4 µM (inactive) | 28.9 µM (inactive) | 19.2 µM (inactive) | 20.2 µM (inactive)
CC(=O)c1nc(C#N)c(N)o1 | > 100 µM (inactive) | – | > 100 µM (inactive) | > 100 µM (inactive) | > 100 µM (inactive) | > 100 µM (inactive) | > 100 µM (inactive) | > 100 µM (inactive) | > 100 µM (inactive) | > 100 µM (inactive) | > 100 µM (inactive) | > 100 µM (inactive) | > 100 µM (inactive) | > 100 µM (inactive) | > 100 µM (inactive) | > 100 µM (inactive) | > 100 µM (inactive) | > 100 µM (inactive) | > 100 µM (inactive) | > 100 µM (inactive)
CC(=O)OC1C2CCC3CC2C2(SCCS2)C31 (stereo unspecified) | > 100 µM (inactive) | 70.8 µM (inactive) | – | > 100 µM (inactive) | > 100 µM (inactive) | > 100 µM (inactive) | > 100 µM (inactive) | > 100 µM (inactive) | > 100 µM (inactive) | 65.9 µM (inactive) | > 100 µM (inactive) | > 100 µM (inactive) | > 100 µM (inactive) | > 100 µM (inactive) | > 100 µM (inactive) | > 100 µM (inactive) | > 100 µM (inactive) | > 100 µM (inactive) | > 100 µM (inactive) | > 100 µM (inactive)
CCC1(O)C(=O)OCc2c1cc1n(c2=O)Cc2cc3ccc(C=O)cc3nc2-1 (stereo unspecified) | 3.23 µM (inactive) | 1.36 µM (inactive) | 1.73 µM (inactive) | 2.2 µM (inactive) | – | 5.56 µM (inactive) | 0.387 µM (active) | 1.34 µM (inactive) | 0.132 µM (active) | 0.551 µM (active) | 2.13 µM (inactive) | 6.19 µM (inactive) | 7.18 µM (inactive) | 0.493 µM (active) | 27.1 µM (inactive) | 0.655 µM (active) | 17.8 µM (inactive) | 1.12 µM (active) | 2.04 µM (inactive) | 13.4 µM (inactive)
COc1cc(O)c2c(=O)c(OC)c(-c3ccc4c(c3)OCO4)oc2c1 | 14.4 µM (inactive) | > 100 µM (inactive) | – | 11.2 µM (inactive) | 6.53 µM (inactive) | > 100 µM (inactive) | > 100 µM (inactive) | > 44.4 µM (inactive) | > 68.9 µM (inactive) | > 27.4 µM (inactive) | > 28.8 µM (inactive) | > 100 µM (inactive) | > 100 µM (inactive) | 6.01 µM (inactive) | > 100 µM (inactive) | > 100 µM (inactive) | 21.6 µM (inactive) | > 85.1 µM (inactive) | 5.66 µM (inactive) | 59.7 µM (inactive)
CCN1C(=O)C(=C/C=C/c2ccc(OC)cc2)C(=O)N(CC)C1=S | 60.4 µM (inactive) | 7.5 µM (inactive) | 21.7 µM (inactive) | 17.2 µM (inactive) | – | 18.2 µM (inactive) | 18.2 µM (inactive) | 17.8 µM (inactive) | 25.7 µM (inactive) | 19.6 µM (inactive) | > 100 µM (inactive) | 16 µM (inactive) | 21.6 µM (inactive) | 30.7 µM (inactive) | – | > 100 µM (inactive) | 15.7 µM (inactive) | 22.1 µM (inactive) | 37.9 µM (inactive) | > 100 µM (inactive)
